Six compounds from patent US9718841B2, “Bicyclic pyrazolone compounds and methods of use” (CALITOR SCIENCES, LLC, priority 2014, dated 2017) can be followed below.

A short description of data set [1]: Pharmacokinetic profiles in rats. The format is in vivo. The settings on record: bioavailability. How it is done:
The compounds disclosed herein are assessed in pharmacokinetic studies in mice, rats, dogs or monkeys. The compounds are administered as a water solution, 2% HPMC+1% TWEEN® 80 in water solution, 5% DMSO+5% solutol in saline, 4% MC suspension or capsule. For the intravenous administration, the animals are generally given at 1 or 2 mg/kg dose. For the oral (p.o.) dosing, mice and rats are generally given 5 or 10 mg/kg dose, and dogs and monkeys are generally given 10 mg/kg dose. The blood samples (0.3 mL) are drawn at 0.25, 0.5, 1.0, 2.0, 3.0, 4.0, 6.0, 8.0, 12 and 24 h time points or 0.083, 0.25, 0.5, 1.0, 2.0, 4.0, 6.0, 8.0 and 24 h time points and centrifuged at 3,000 or 4000 rpm for 2 to 10 min. The plasma solutions are collected, and stored at −20° C. or −70° C. until analyzed by LC/MS/MS as described above.

Data set [2] is described as follows: Compound stability in human liver microsomes. The settings on record: 37° C. The format is in vitro ADME. The method, then:
Human or rat liver microsomes incubations were conducted in duplicate in polypropylene tubes. The typical incubation mixtures consisted of human or rat liver microsomes (0.5 mg protein/mL), compounds of interest (5 μM) and NADPH (1.0 mM) in a total volume of 200 μL potassium phosphate buffer (PBS, 100 mM, pH 7.4). Compounds were dissolved in DMSO and diluted with PBS such that the final concentration of DMSO was 0.05%. The enzymatic reactions were commenced with the addition of protein after a 3-min preincubation and incubated in a water bath open to the air at 37° C. Reactions were terminated at various time points (0, 5, 10, 15, 30, 60 min) by adding equal volume of ice-cold acetonitrile. The samples were stored at −80° C. until LC/MS/MS assays.
The concentrations of compounds in the incubation mixtures of human or rat liver microsomes were determined by a LC/MS/MS method. The ranges of the linearity in the concentration range were determined for each tested compounds.
A parallel incubation was performed using denatured microsomes as the negative control, and reactions were terminated at various time points (0, 15, 60 min) after incubation at 37° C.
Dextromethorphan (70 μM) was selected as the positive control, and reactions were terminated at various time points (0, 5, 10, 15, 30, 60 min) after incubation at 37° C. […]
For orientation: Microsomes from liver hold many membrane-bound enzymes, among them those of drug oxidation.

As for `Nc1cc(Oc2ccc(NC(=O)c3c4n(n(-c5ccccc5)c3=O)CCC4)cc2)ccn1` [Ex. 1, N-(4-((2-aminopyridin-4-yl)oxy)phenyl)-2-oxo-1-phenyl-2,4,5,6-tetrahydro-1H-pyrrolo[1,2-b]pyrazole-3-carboxamide], the F in data set [1] stood at 163.3%. In turn, `O=C(Nc1ccc(Oc2ccnc(NC(=O)C3CC3)c2)cc1)c1c2n(n(-c3ccccc3)c1=O)CCC2` [Ex. 2, N-(4-((2-(cyclopropanecarboxamido)pyridin-4-yl)oxy)phenyl)-2-oxo-1-phenyl-2,4,5,6-tetrahydro-1H-pyrrolo[1,2-b]pyrazole-3-carboxamide] gave a F in data set [1] of 68.1%.

The compound `CC(=O)Nc1cc(Oc2ccc(NC(=O)c3c4n(n(-c5ccccc5)c3=O)CCC4)cc2)ccn1` [Ex. 3, N-(4-((2-acetamidopyridin-4-yl)oxy)phenyl)-2-oxo-1-phenyl-2,4,5,6-tetrahydro-1H-pyrrolo[1,2-b]pyrazole-3-carboxamide] yielded a F in data set [1] of 94.5%. Consider `CC(=O)Nc1cc(Oc2ccc(NC(=O)c3c4n(n(-c5ccccc5)c3=O)CCOC4)nc2)ccn1` [Ex. 12, N-(5-((2-acetamidopyridin-4-yl)oxy)pyridin-2-yl)-2-oxo-1-phenyl-2,4,6,7-tetrahydro-1H-pyrazolo[5,1-c][1,4]oxazine-3-carboxamide], for which the T1/2 entry in data set [2] is “∞”. The F in data set [1] is given as 72.1%. In turn, `O=C(Nc1ccc(Oc2ccnc(NC(=O)C3CC3)c2)cn1)c1c2n(n(-c3ccccc3)c1=O)CCC2` [Ex. 14, N-(5-((2-(cyclopropanecarboxamido)pyridin-4-yl)oxy)pyridin-2-yl)-2-oxo-1-phenyl-2,4,5,6-tetrahydro-1H-pyrrolo[1,2-b]pyrazole-3-carboxamide] displayed a F in data set [1] of 87.9%.

As to `O=C(Nc1ccc(Oc2ccnc(NC(=O)C3CC3)c2)cc1)c1c2n(n(-c3ccccc3)c1=O)CCOC2` [Ex. 19, N-(4-((2-(cyclopropanecarboxamido)pyridin-4-yl)oxy)phenyl)-2-oxo-1-phenyl-2,4,6,7-tetrahydro-1H-pyrazolo[5,1-c][1,4]oxazine-3-carboxamide], the T1/2 entry in data set [2] is on record as “∞”. Moreover, in data set [1], the F was 66.7%.
